From US20260365611A1, “CRYSTALLINE SALTS OF 2-PHENYL-2-AMINOCYCLOHEXAN-1-ONE DERIVATIVES” (priority 2023, published 2026)

Assay: Polymorph screening (slurry, anti-solvent addition, thermal cycling, slow evaporation, vapor diffusion, polymer-induced crystallization)
Type: physicochemical
Design: key: CL: Clear Liquid; HCl-1: Form 1 polymorph; HCl-2: Mixture of Polymorphs of Form 1 and Form 2
Procedure: Based on the approximate solubility of the product of Example 1 (1R HCl Form 1), screening experiments were conducted to find potential additional crystalline forms (polymorphs) using different screening techniques including, but not limited to, slow evaporation, slow cooling, anti-solvent addition, slurry at RT and 50 °C, temperature cycling, diffusion (solid and liquid), and polymer induced crystallization. The various procedures are outlined hereinbelow.
~40 mg of the product of Example 1 was slurried in 0.5-1.0 mL of different solvents in a 4.0 mL glass vial using a magnetic stirrer at RT. The solids in the slurry were stirred for 7 days.
~40 mg of the product of Example 1 was slurried in 0.5-1.0 mL of different solvents in a 4.0 mL glass vial using a magnetic stirrer at 50 °C. […]. The solids in the slurry were stirred for 3 days.
~40 mg of the product of Example 1 was dissolved in a solvent to create a saturated solution and an anti-solvent was added up to 10 volume ratios. The solids, if any, were collected.
~40 mg of the product of Example 1 was dissolved in a solvent, heated, and cooled following temperature cycles of 45 °C/1h→35 °C/4h→25 °C/4h→15 °C/4h→5 °C/4 h for 7 days. The obtained solids (if any) were collected after 7 days.
~40 mg of the product of Example 1 was dissolved in a solvent in a vial to create a saturated solution. The vial opening was covered with parafilm or aluminum foil (2-holes). The vials were kept at RT under the hood. The obtained solids (if any) were collected after 7 days.
~40 mg of the product of Example 1 was dissolved in a solvent to create a saturated solution in a 4.0 mL glass vial. The vial was placed in a 20 mL glass vial containing an anti-solvent. The obtained solids were collected after 7-10 days.
~40 mg of the product of Example 1 was kept in a 4.0 mL glass vial; this vial was placed in a 20 mL glass vial containing a solvent. The solids were collected after 7-10 days.
~40 mg of the product of Example 1 and 2.0 mg of the listed polymer were added to a solvent and kept stirring at RT. The solids in slurry or precipitated solids from solution were collected after 7 days.

Measured: Crystal Form

CN[C@@]1(c2ccc(F)cc2)CCCCC1=O.Cl [1R HCl, (R)-2-(4-fluorophenyl)-2-(methylamino)cyclohexan-1-one hydrochloride]
amorphous: slurry RT, 7 days, PEG
HCl-1: anti-solvent addition, DCM / Acetone | anti-solvent addition, DCM / CPME | anti-solvent addition, DCM / EtOAc | anti-solvent addition, DCM / Hexane | anti-solvent addition, IPA / Heptane | anti-solvent addition, MeOH / EtOAc | anti-solvent addition, MeOH / MTBE | anti-solvent addition, MeOH / THF | liquid vapor diffusion RT, NMP / MTBE | polymer induced RT, EtOH/Heptane (3/7), HPMC | polymer induced RT, MTBE/IPA (9:1), PVA | slow evaporation RT, 7 days, ACN | slow evaporation RT, 7 days, Acetone | slow evaporation RT, 7 days, Water | slow evaporation RT, 7 days, nPA | slurry 50 °C, 3 days, 1,4-dioxane | slurry 50 °C, 3 days, 2-MeTHF | slurry 50 °C, 3 days, ACN | slurry 50 °C, 3 days, Acetone/Toluene (1:1) | slurry 50 °C, 3 days, EtOAc | slurry 50 °C, 3 days, EtOH | slurry 50 °C, 3 days, IPA | slurry 50 °C, 3 days, IPAc | slurry 50 °C, 3 days, MEK | slurry 50 °C, 3 days, MIBK | slurry 50 °C, 3 days, MTBE | slurry 50 °C, 3 days, MeOH | slurry 50 °C, 3 days, THF/n-Heptane (1:1) | slurry 50 °C, 3 days, Toluene | slurry 50 °C, 3 days, Water | slurry RT, 7 days, Acetone/Toluene (1:1) | slurry RT, 7 days, Anisole | slurry RT, 7 days, CPME | slurry RT, 7 days, EtOAc | slurry RT, 7 days, IPA | slurry RT, 7 days, IPAc | slurry RT, 7 days, MEK | slurry RT, 7 days, MIBK | slurry RT, 7 days, MTBE | slurry RT, 7 days, MeOH | slurry RT, 7 days, THF/n-Heptane (1:1) | slurry RT, 7 days, Toluene | solid vapor diffusion RT, 1,4-dioxane | solid vapor diffusion RT, 2-MeTHF | solid vapor diffusion RT, ACN | solid vapor diffusion RT, Acetone | solid vapor diffusion RT, EtOAc | solid vapor diffusion RT, Hexane | solid vapor diffusion RT, MEK | solid vapor diffusion RT, MTBE | solid vapor diffusion RT, Toluene | thermal cycling, 7 days, ACN | thermal cycling, 7 days, DMSO | thermal cycling, 7 days, EtOH/n-Heptane (3:7) | thermal cycling, 7 days, MeOH/IPAc (1:9)
CL: anti-solvent addition, DCM / 1,4-dioxane | anti-solvent addition, IPA / 1,4-dioxane | anti-solvent addition, IPA / Acetone | anti-solvent addition, MeOH / Acetone | anti-solvent addition, Water / 1,4-dioxane | anti-solvent addition, Water / ACN | anti-solvent addition, Water / THF | liquid vapor diffusion RT, DMSO / Acetone | liquid vapor diffusion RT, DMSO / EtOAc | liquid vapor diffusion RT, DMSO / Toluene | liquid vapor diffusion RT, MeOH / 2-MeTHF | liquid vapor diffusion RT, MeOH / IPAc | liquid vapor diffusion RT, MeOH / MTBE | liquid vapor diffusion RT, NMP / 1,4-dioxane | liquid vapor diffusion RT, NMP / Acetone | slow evaporation RT, 7 days, DMF | slow evaporation RT, 7 days, DMSO | slow evaporation RT, 7 days, NMP | slurry RT, 7 days, H2O | solid vapor diffusion RT, DCM | solid vapor diffusion RT, EtOH | solid vapor diffusion RT, MeOH
gel: polymer induced RT, ACN/H2O (9:1), PEO (Poloxamer 407) | polymer induced RT, MeOH/H2O (9:1), PVP | slow evaporation RT, 7 days, MeOH | slurry 50 °C, 3 days, THF/H2O (9:1) | slurry RT, 7 days, Acetone/H2O (aw = 0.6) | slurry RT, 7 days, Acetone/H2O (aw = 0.8) | thermal cycling, 7 days, EtOH/acetone (3:7)
HCl-2: anti-solvent addition, IPA / IPAc | anti-solvent addition, IPA / MTBE | anti-solvent addition, MeOH / Toluene | polymer induced RT, Acetone/DCM (9:1), PVP | polymer induced RT, Acetone/H2O (9:1), PVA | slow evaporation RT, 7 days, DCM | slurry RT, 7 days, 1,4-dioxane | slurry RT, 7 days, ACN | slurry RT, 7 days, Acetone/H2O (aw = 0.2) | slurry RT, 7 days, Acetone/H2O (aw = 0.4) | slurry RT, 7 days, THF | thermal cycling, 7 days, IPA | thermal cycling, 7 days, IPA/Toluene (3:7)
